Kd data for one compound are collected here from patent publication US20210284691A1, “CBX8 CHROMDOMAIN INHIBITORS AND THE USES THEREOF” (Purdue Research Foundation, priority 2019, published 2021).

The structures appear in SMILES notation. Square brackets hold non-standard residues; d marks the D form. Peptide text beside a SMILES is read from it. * marks the point of attachment. X2 = O=C(NCCCCn1cc(CN*)nn1)c1ccc2c(c1)C1(OC2=O)c2ccc(O)cc2Oc2cc(O)ccc21; Isoxazole3carbonyl(5-iPr) = CC(C)c1cc(C(=O)*)no1; Tyr(3-Cl) = N[C@@H](Cc1ccc(O)c(Cl)c1)C(=O)O; Gly(3-thienyl) = N[C@H](C(=O)O)c1ccsc1; Lys(Et2) = CCN(CC)CCCC[C@H](N)C(=O)O

In experiment [1] the target is T1, CBX7 ChD (Homo sapiens, UniProt O95931).
T1 construct: CBX chromodomain constructs; host or cells: E. coli BL21 CodonPlus RIL
T1 sequence (O95931 11-69 limits assumed): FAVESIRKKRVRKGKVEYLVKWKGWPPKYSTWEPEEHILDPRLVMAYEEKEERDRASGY
In words: Direct fluorescence polarization (FP) binding assay. As to the method: CBX chromodomain constructs (addgene plasmid #25158 (CBX2), #25237 (CBX4), #25296 (CBX6), #25241 (CBX7) and #62514 (CBX8, provided by Cheryl Arrowsmith), Kaustov et al.) were transformed into chemically competent BL21 CodonPlus RIL E. coli cells (Stratagene, La Jolla, Calif.) as N-terminal His6-tagged proteins. Bacterial growth was completed at 37° C. in LB media to OD600=2.0, followed by reducing the temperature to 16° C. over 30-60 min and induced with 1 mM IPTG for 16 h. Cells were collected by centrifugation at 6000 rpm for 20 min and resuspended in ChD binding buffer (20 mM Tris, pH 8, 150 mM NaCl, 0.01% Tween-20, 20 mM imidazole) with 1.0 mM PMSF. Bacteria pellets were stored at −80° C. until needed. Pellets were thawed on ice for 10 min in ChD binding buffer, and shaked at 4° C. supplemented with 100 μg/mL lysozyme, 1 mg/mL CHAPS and 1 mM PMSF, for 30 min. Cells were subsequently lysed by sonication (15 W, 30 s on, followed by 30 s off, twice, followed by 20 W for 1 min). The solubilized fraction was collected by centrifugation at 15000 rpm for 40 min at 4° C. Meanwhile, Ni-NTA Agarose resin (QIAGEN, Venlo, Netherlands) was washed with H2O and equilibrated with ChD binding buffer. […] Protein purity was assessed by SDS-PAGE and concentration was determined by the Pierce 660 kit (Thermo Scientific).
Direct fluorescence polarization (FP) binding assay of PSL hits against PcG CBX ChDs. […]

The target in experiment [2] is T2, CBX2 ChD (Homo sapiens, UniProt Q14781).
T2 construct: CBX chromodomain constructs; host or cells: E. coli BL21 CodonPlus RIL
T2 sequence (Q14781 12-70 limits assumed): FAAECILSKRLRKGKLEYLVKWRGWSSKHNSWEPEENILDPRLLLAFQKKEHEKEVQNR
The experiment is described as above. As for the experimental part:
Bacterial growth was completed at 37° C. in LB media to OD600=2.0, followed by reducing the temperature to 16° C. over 30-60 min and induced with 1 mM IPTG for 16 h. Cells were collected by centrifugation at 6000 rpm for 20 min and resuspended in ChD binding buffer (20 mM Tris, pH 8, 150 mM NaCl, 0.01% Tween-20, 20 mM imidazole) with 1.0 mM PMSF. Bacteria pellets were stored at −80° C. until needed. Pellets were thawed on ice for 10 min in ChD binding buffer, and shaked at 4° C. supplemented with 100 μg/mL lysozyme, 1 mg/mL CHAPS and 1 mM PMSF, for 30 min. Cells were subsequently lysed by sonication (15 W, 30 s on, followed by 30 s off, twice, followed by 20 W for 1 min). The solubilized fraction was collected by centrifugation at 15000 rpm for 40 min at 4° C. Meanwhile, Ni-NTA Agarose resin (QIAGEN, Venlo, Netherlands) was washed with H2O and equilibrated with ChD binding buffer. The soluble fraction was incubated with the prewashed Ni-NTA agarose resin at 4° C. for 2 h. The resin was then washed 3× with ChD purification buffer (20 mM Tris, pH 8, 150 mM NaCl, 0.01% Tween-20, 1 mM PMSF). Proteins were eluted by the addition of 0.5 M imidazole to ChD purification buffer. The elution was diluted with 30% glycerol, flash frozen, and stored at −80° C. until needed. Protein purity was assessed by SDS-PAGE and concentration was determined by the Pierce 660 kit (Thermo Scientific).
Direct fluorescence polarization (FP) binding assay of PSL hits against PcG CBX ChDs. FP assays were conducted as above with slight modifications. Alkyne peptides described above were conjugated with a fluorescein group(5-/6-FAM) through copper catalyzed click reaction as previously described. The FAM-labeled peptide was kept constant at 100 nM. The CBX ChD proteins were titrated by 2-fold series dilutions in the assays. The highest protein concentrations, at which FAM-peptide was completely bound, used for each CBX in the direct binding assays depends on the binding affinity of the peptides. Assays were performed for each peptide in four replicates.

`CC[C@H](C)[C@H](NC(=O)[C@@H](NC(=O)[C@H](Cc1ccc(O)c(Cl)c1)NC(=O)c1cc(C(C)C)on1)c1ccsc1)C(=O)N[C@@H](CCCCN(CC)CC)C(=O)N[C@@H](CO)C(=O)NCc1cn(CCCCNC(=O)c2ccc3c(c2)C2(OC3=O)c3ccc(O)cc3Oc3cc(O)ccc32)nn1` [SW2_104A-FL] ({Isoxazole3carbonyl(5-iPr)}-[Tyr(3-Cl)][Gly(3-thienyl)]I[Lys(Et2)]S-X2): the Kd amounted to 840 ± 380 nM in experiment [1] and 51 ± 36 nM in experiment [2].
